The results in this text go back to patent US9024017B2, “Octahydro-cyclopentapyrrolyl antagonists of CCR2” (Janssen Pharmaceutica NV, priority 2012, dated 2015).

This experiment concerns the target T1, CCR2 (Homo sapiens, UniProt P41597).
T1 construct: host or cells: THP-1 (human monocytic cell line)
As to the kind of experiment: MCP-1 Receptor Binding Assay in THP-1 Cells. Conditions: read-out: MCP1B_v3 IC50. A digest of the protocol: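 Human monocytic THP-1 cells incubated 2 h at 30 °C with 0.5 nM 125I-MCP-1 and varying concentrations of test compound or unlabelled MCP-1. Cells filter-harvested and counted by scintillation; blank subtracted, compared with vehicle; nonspecific binding with 1 μM cold MCP-1.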

T1 sequence (P41597 whole entry): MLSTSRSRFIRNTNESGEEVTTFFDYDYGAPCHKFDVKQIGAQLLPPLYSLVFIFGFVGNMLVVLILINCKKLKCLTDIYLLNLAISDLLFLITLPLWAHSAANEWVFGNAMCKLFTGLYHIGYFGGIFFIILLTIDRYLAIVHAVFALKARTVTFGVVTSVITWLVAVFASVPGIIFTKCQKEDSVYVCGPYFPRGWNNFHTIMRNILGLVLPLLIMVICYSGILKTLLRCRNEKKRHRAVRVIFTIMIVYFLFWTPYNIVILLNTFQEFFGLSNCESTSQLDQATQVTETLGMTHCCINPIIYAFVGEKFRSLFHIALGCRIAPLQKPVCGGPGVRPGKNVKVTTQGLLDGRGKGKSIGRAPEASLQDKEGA

One may read the IC50 as the midpoint of a concentration-inhibition curve. As to `CO[C@H]1COCC[C@H]1N[C@@H]1C[C@H]2CN(C(N)=O)C[C@@]2(C(=O)N2CCc3ncc(C(F)(F)F)cc3C2)C1` [Example 4], the IC50 was determined as 40 nM.
Next, `COCCN[C@@H]1C[C@H]2CN(C(N)=O)C[C@@]2(C(=O)N2CCc3ncc(C(F)(F)F)cc3C2)C1` [Example 7]: 5060 nM; `NC(=O)N1C[C@@H]2C[C@@H](NC3CCOCC3)C[C@]2(C(=O)N2CCc3ncc(C(F)(F)F)cc3C2)C1` [Example 8]: 170 nM; `CO[C@@H]1COCC[C@@H]1N[C@@H]1C[C@H]2CN(C(=O)OCCC3CCOCC3)C[C@@]2(C(=O)N2CCc3ncc(C(F)(F)F)cc3C2)C1` [Example 43, (3aR,5R,6aR)-2-(Tetrahydro-2H-pyran-4-yl)ethyl 5-(((3S,4S)-3-methoxytetrahydro-2H-pyran-4-yl)amino)-3a-(3-(trifluoromethyl)-5,6,7,8-tetrahydro-1,6-naphthyridine-6-carbonyl)hexahydrocyclopenta[c]pyrrole-2(1H)-carboxylate]: 30 nM.
Take `CO[C@H]1COCC[C@H]1N[C@@H]1C[C@H]2CN(C(=O)OCCC3CCOCC3)C[C@@]2(C(=O)N2CCc3ncc(C(F)(F)F)cc3C2)C1` [Example 44, (3aR,5R,6aR)-2-(Tetrahydro-2H-pyran-4-yl)ethyl 5-(((3R,4R)-3-methoxytetrahydro-2H-pyran-4-yl)amino)-3a-(3-(trifluoromethyl)-5,6,7,8-tetrahydro-1,6-naphthyridine-6-carbonyl)hexahydrocyclopenta[c]pyrrole-2(1H)-carboxylate]: the IC50 was found to be 80 nM.
The value for `COC1COCCC1N[C@@H]1C[C@H]2CN(C(=O)OCc3cccc(C#N)c3)C[C@@]2(C(=O)N2CCc3ncc(C(F)(F)F)cc3C2)C1` (stereo partly drawn) [Example 59, (3aR,5R,6aR)-3-Cyanobenzyl 5-((3-methoxytetrahydro-2H-pyran-4-yl)amino)-3a-(3-(trifluoromethyl)-5,6,7,8-tetrahydro-1,6-naphthyridine-6-carbonyl)hexahydrocyclopenta-[c]pyrrole-2(1H)-carboxylate] was 220 nM.
